Results as given in publication PMC8330100, “Similarities and differences in the localization, trafficking, and function of P-glycoprotein in MDR1-EGFP-transduced rat versus human brain capillary endothelial cell lines” (Fluids and Barriers of the CNS, 2021).
One block for each molecule: values may come before it.

How the values were obtained:
Pgp in RBE4-WT cells = test: Rhodamine 123 uptake/accumulation assay, RBE4-WT cells; assay type: cell-based, rat; settings: tariquidar 0.5 µM
Procedure: The functionality of Pgp in RBE4-WT, RBE4-MDR1-EGFP, hCMEC/D3-WT, hCMEC/D3-MDR1-EGFP cells, and primary rBCECs was analyzed by measuring the uptake of the fluorescent Pgp substrate Rho123 (Sigma-Aldrich). Cells were grown on 6-well plates and cultured for seven days in the presence or absence of doxycycline (1 µg/mL, Biochrom). […] Afterward, Rho123 (5 µM, dissolved in ethanol) was added and cells were incubated for another two hours. Rho123 transport was terminated by washing the cells twice with ice-cold PBS. Intracellular Rho123 concentration was determined by cell lysis in standard lysis buffer (25 mM Tris, 50 mM NaCl, 0.5% (w/v) sodium deoxycholate, 0.5% (w/v) Triton X-100) and measurement of fluorescence intensity with the FLUOstar OPTIMA (ex.: 485 nm, em.: 520 nm; BMG Labtech). Protein concentrations were determined using a BCA assay kit (Thermo Fisher Scientific). Rho123 uptake was obtained for each condition in triplicates and calculated as absolute fluorescence per mg protein. Additionally, Pgp functionality was expressed as multidrug resistance activity factor (MAF) as described by Huber et al.. This factor describes Pgp efflux activity based on differences in intracellular Rho123 accumulation in cells after Pgp inhibition compared to cells with active Pgp-mediated efflux. Thus, higher MAF values correlate with increased Pgp activity. For better comparison, differences in Rho123 accumulation are normalized to intracellular Rho123 levels in inhibitor-treated cells. MAF values for Pgp were calculated according to Huber et al. 2012 utilizing the following equation: MAF (%) = 100 · (MFITQ − MFI0)/(MFITQ) where MFITQ and MFI0 represent the mean fluorescence intensity of intracellular Rho123 in tariquidar (TQ)-treated and non-treated cells, respectively.

[1] = biological target: T1, Pgp in RBE4-MDR1-EGFP cells (Homo sapiens, UniProt P08183); test: Rhodamine 123 uptake/accumulation assay, RBE4-MDR1-EGFP cells; assay type: cell-based, rat; settings: RBE4-MDR1-EGFP in the presence of doxycycline; tariquidar 0.5 µM
T1 construct: expressed in transfected cells; host or cells: RBE4 (rat BCEC line), lentiviral transduction, doxycycline-inducible
T1 sequence (P08183 with tags, fused parts or gaps): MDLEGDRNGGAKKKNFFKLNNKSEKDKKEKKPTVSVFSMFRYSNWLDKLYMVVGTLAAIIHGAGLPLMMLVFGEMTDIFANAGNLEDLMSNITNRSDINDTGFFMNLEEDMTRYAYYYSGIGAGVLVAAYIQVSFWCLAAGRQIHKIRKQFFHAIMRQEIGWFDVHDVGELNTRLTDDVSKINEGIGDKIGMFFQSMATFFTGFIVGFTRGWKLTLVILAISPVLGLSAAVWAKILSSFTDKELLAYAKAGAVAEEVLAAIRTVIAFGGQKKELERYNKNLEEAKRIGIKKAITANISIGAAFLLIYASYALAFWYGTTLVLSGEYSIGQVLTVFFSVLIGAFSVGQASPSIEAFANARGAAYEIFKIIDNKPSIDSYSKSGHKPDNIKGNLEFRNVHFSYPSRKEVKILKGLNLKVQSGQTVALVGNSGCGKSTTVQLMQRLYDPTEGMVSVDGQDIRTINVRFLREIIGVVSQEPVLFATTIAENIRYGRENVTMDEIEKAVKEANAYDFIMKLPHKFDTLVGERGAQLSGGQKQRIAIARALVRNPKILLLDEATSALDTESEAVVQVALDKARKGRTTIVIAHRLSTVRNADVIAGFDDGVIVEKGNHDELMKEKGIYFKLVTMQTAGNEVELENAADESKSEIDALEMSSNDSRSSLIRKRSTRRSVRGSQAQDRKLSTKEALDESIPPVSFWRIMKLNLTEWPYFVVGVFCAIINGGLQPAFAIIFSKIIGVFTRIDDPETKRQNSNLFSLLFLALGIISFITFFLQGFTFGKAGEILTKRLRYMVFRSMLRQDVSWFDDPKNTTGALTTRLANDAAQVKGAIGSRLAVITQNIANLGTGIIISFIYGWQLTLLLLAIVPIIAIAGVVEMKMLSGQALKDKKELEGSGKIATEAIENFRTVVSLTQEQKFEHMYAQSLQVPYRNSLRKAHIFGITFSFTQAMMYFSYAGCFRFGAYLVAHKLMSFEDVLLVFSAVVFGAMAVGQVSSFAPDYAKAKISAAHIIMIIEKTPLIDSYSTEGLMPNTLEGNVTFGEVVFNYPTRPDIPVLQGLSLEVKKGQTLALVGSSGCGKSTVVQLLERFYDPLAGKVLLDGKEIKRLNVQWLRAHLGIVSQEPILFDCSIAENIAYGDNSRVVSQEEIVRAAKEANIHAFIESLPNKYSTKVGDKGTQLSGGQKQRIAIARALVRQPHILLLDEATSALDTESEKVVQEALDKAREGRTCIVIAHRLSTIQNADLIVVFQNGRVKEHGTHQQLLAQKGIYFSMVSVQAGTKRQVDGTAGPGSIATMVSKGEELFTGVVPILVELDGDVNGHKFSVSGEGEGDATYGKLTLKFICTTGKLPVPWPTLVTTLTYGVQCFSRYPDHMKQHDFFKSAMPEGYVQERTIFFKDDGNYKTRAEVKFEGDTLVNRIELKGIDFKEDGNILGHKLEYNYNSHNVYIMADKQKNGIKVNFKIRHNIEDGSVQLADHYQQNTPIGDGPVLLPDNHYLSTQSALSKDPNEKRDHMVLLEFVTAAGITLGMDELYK
Procedure: (§1) Piet Borst (The Netherlands Cancer Institute, Amsterdam, The Netherlands) as template. The linker sequence in the vector fusing EGFP and MDR1 consists of 36 bp ([…]). hCMEC/D3-WT, RBE4-WT, and hCMEC/D3-MDR1-EGFP cell lines were cultivated as previously described. The same culture conditions were used for the newly prepared RBE4-MDR1-EGFP cell line. As described previously, hydrocortisone (1.4 µM) was added to the culture medium to enhance the expression and functionality of Pgp and transendothelial resistance. All endothelial cell lines were grown on rat-tail collagen I (60 µg/mL, Gibco) coated 100 mm cultures dishes or permeable membrane supports at 37 °C and 5% CO2. Pgp-EGFP protein expression in MDR1-EGFP transduced cells was induced by cell cultivation in medium containing […] doxycycline. Expression of Pgp-EGFP was regularly verified by observing the cells with an inverted fluorescence microscope. Doxycycline supplementation of the medium was maintained during the whole culturing period of Pgp-EGFP expressing cells. For experiments, hCMEC/D3 and RBE4 cells were seeded in a density of 50,000 cells/cm^2. Immortalized MDR1 transfected porcine kidney LLC-PK1 (LLC-MDR1) cells, which were used as a reference standard for vectorial transport experiments, were kindly provided by Prof. Piet Borst. […]

Pgp in hCMEC/D3-WT cells = biological target: T2, Pgp in hCMEC/D3-WT cells (Homo sapiens, UniProt P08183); test: Rhodamine 123 uptake/accumulation assay, hCMEC/D3-WT cells; assay type: cell-based; settings: tariquidar 0.5 µM
T2 construct: endogenous in cells; host or cells: hCMEC/D3-WT
T2 sequence (P08183 whole entry): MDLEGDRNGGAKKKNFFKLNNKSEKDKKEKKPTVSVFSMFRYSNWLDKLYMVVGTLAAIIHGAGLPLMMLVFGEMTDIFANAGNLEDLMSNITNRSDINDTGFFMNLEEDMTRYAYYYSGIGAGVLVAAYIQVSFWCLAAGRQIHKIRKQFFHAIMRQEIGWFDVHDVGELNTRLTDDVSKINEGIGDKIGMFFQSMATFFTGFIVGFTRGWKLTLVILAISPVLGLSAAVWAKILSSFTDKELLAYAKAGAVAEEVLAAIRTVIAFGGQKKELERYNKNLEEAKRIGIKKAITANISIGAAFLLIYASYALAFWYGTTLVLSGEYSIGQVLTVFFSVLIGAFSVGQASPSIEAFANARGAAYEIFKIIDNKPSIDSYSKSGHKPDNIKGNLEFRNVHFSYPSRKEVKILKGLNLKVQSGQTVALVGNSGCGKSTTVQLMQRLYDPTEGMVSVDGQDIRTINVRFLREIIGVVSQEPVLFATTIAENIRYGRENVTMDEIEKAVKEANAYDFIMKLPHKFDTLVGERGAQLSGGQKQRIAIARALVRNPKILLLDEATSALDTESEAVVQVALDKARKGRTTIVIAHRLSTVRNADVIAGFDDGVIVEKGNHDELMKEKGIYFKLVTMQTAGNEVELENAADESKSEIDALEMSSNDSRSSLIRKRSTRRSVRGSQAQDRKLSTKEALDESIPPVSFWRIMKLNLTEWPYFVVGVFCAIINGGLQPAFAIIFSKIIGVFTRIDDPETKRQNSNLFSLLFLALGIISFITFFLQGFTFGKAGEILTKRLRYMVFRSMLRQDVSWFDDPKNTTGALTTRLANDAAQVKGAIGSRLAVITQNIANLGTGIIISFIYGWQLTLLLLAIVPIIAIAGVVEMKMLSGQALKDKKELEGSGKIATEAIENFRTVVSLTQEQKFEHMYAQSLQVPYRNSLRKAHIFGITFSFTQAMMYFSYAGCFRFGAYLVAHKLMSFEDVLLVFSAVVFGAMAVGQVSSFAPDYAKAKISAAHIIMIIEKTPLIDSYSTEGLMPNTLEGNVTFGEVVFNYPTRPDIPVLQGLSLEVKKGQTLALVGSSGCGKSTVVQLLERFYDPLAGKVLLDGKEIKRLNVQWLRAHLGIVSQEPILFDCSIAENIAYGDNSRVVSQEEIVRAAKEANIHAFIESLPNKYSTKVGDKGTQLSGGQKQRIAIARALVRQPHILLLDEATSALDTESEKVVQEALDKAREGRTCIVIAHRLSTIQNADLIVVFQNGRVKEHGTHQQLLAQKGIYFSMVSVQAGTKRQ
Procedure: The functionality of Pgp in RBE4-WT, RBE4-MDR1-EGFP, hCMEC/D3-WT, hCMEC/D3-MDR1-EGFP cells, and primary rBCECs was analyzed by measuring the uptake of the fluorescent Pgp substrate Rho123 (Sigma-Aldrich). Cells were grown on 6-well plates and cultured for seven days in the presence or absence of doxycycline (1 µg/mL, Biochrom). […] Afterward, Rho123 (5 µM, dissolved in ethanol) was added and cells were incubated for another two hours. Rho123 transport was terminated by washing the cells twice with ice-cold PBS. […] Rho123 uptake was obtained for each condition in triplicates and calculated as absolute fluorescence per mg protein. Additionally, Pgp functionality was expressed as multidrug resistance activity factor (MAF) as described by Huber et al. [40]. This factor describes Pgp efflux activity based on differences in intracellular Rho123 accumulation in cells after Pgp inhibition compared to cells with active Pgp-mediated efflux. Thus, higher MAF values correlate with increased Pgp activity. […] MAF values for Pgp were calculated according to Huber et al. 2012 utilizing the following equation: MAF (%) = 100 · (MFITQ − MFI0)/(MFITQ) where MFITQ and MFI0 represent the mean fluorescence intensity of intracellular Rho123 in tariquidar (TQ)-treated and non-treated cells, respectively.

Pgp in primary rBCECs = test: Rhodamine 123 uptake/accumulation assay, primary rBCECs; assay type: cell-based, rat; settings: tariquidar 0.5 µM, P < 0.0001
Source text: The RBE4 and hCMEC/D3 cell lines used here are immortalized, which has the advantage that these cells are stable for several passages and may yield a large number of endothelial cells with the same genetic and phenotypical characteristics. The immortalization status, however, causes several alterations as compared to the native original cell type, including low junctional tightness of cell monolayers and reduced expression of efflux transporters such as Pgp. Therefore, for comparison with the MDR1-EGFP transduced rat RBE4 cells, experiments were also performed with primary cultured rat brain capillary endothelial cells (rBCECs). As described by us previously, rBCECs were prepared following a protocol by Régina et al. and Perrière et al. from 2 to 3 weeks old Wistar rats (obtained from Charles River; Sulzfeld, Germany). All animals were treated according to protocols evaluated and approved by the ethical committee of our university. In short, meninges were removed from cerebral cortices in phosphate-buffered saline (PBS) with 1% penicillin (100 U/mL)/streptomycin (100 μg/mL) (Biochrom AG) on ice. Subsequently, cortices were mechanically dissociated with scalpels. […]
The functionality of Pgp in RBE4-WT, RBE4-MDR1-EGFP, hCMEC/D3-WT, hCMEC/D3-MDR1-EGFP cells, and primary rBCECs was analyzed by measuring the uptake of the fluorescent Pgp substrate Rho123 (Sigma-Aldrich). […] Intracellular Rho123 concentration was determined by cell lysis in standard lysis buffer (25 mM Tris, 50 mM NaCl, 0.5% (w/v) sodium deoxycholate, 0.5% (w/v) Triton X-100) and measurement of fluorescence intensity with the FLUOstar OPTIMA (ex.: 485 nm, em.: 520 nm; BMG Labtech). Protein concentrations were determined using a BCA assay kit (Thermo Fisher Scientific). Rho123 uptake was obtained for each condition in triplicates and calculated as absolute fluorescence per mg protein. Additionally, Pgp functionality was expressed as multidrug resistance activity factor (MAF) as described by Huber et al.. […]

[2] = Mannitol permeability assay (basolateral to apical) across RBE4 monolayers; assay type: in vitro ADME, rat; settings: rat
Procedure: (§2) Incubation was performed under cell culture conditions (37 °C, 5% CO2, humidified atmosphere) on a horizontal shaker (55 rpm). […] Basolateral volume was adjusted after each sampling to compensate for changes in the hydrostatic pressure. TEER measurements before and after the assay were carried out to confirm barrier integrity. The apparent permeability coefficients (Papp) in nm per second were calculated according to Artursson. Each experiment was performed in at least three replicates. As was described for the TEER measurements above, mannitol fluxes were compared in the ThinCert®, Transwell®, and Sarstedt-TC-insert systems, using 6-well and 12-well multiwell plates and different membrane materials. Based on this comparison, all subsequent experiments were performed with ThinCert® cell culture inserts [12-well, 0.4 µm pore size, polyethylene terephthalate (PET)] from Greiner Bio-One.

RBE4 cell monolayers = test: as above; assay type: in vitro ADME, rat
Procedure: as §2

[3] = Mannitol permeability assay (basolateral to apical) across hCMEC/D3 monolayers; assay type: in vitro ADME, human; settings: human
Procedure: as §2

hCMEC/D3 cell monolayers = test: as above; assay type: in vitro ADME, human
Procedure: as §2

[4] = Paracellular mannitol flux across LLC-MDR1 monolayers; assay type: in vitro ADME, porcine; settings: pig, LLC-PK1, corresponding to the flux per hour, read-out: mannitol permeability
LLC-MDR1 cell monolayers = test: as above; assay type: in vitro ADME, porcine
[5] = test system: Pgp expression in RBE4 cells; test: Western blot of Pgp expression, RBE4 cells; assay type: cell-based, rat
Procedure: as §1, with “cells/cm^2.” for “cells/cm^2. Immortalized MDR1 transfected porcine kidney LLC-PK1 (LLC-MDR1) cells, which were used as a reference standard for vectorial transport experiments, were kindly provided by Prof. Piet Borst.”
(§3) Pgp expression in immortalized cell lines, primary cells, and brain capillaries was evaluated by western blotting.

[6] = test system: Pgp expression in hCMEC/D3 cells; test: Western blot of Pgp expression, hCMEC/D3 cells; assay type: cell-based, human
Procedure: as §1, with “cells/cm^2.” for “cells/cm^2. Immortalized MDR1 transfected porcine kidney LLC-PK1 (LLC-MDR1) cells, which were used as a reference standard for vectorial transport experiments, were kindly provided by Prof. Piet Borst.”
as §3

[7] = RBE4-MDR1 + dox, 7 days after seeding, basolateral to apical, ThinCert 12-well, 0.4 µm, PET
[8] = RBE4-WT, 6-well, Corning #3412, PC, 1·10^8 pores/cm²
[9] = RBE4-WT, 12-well, Corning #3460, PET, 4·10^6 pores/cm²
[10] = RBE4-WT, 12-well, Sarstedt #83.3931.040, PET, 1·10^8 pores/cm²
[11] = RBE4-WT, 7 days after seeding, basolateral to apical, ThinCert (Greiner #665641) 12-well, 0.4 µm, PET, 2·10^6 pores/cm²
[12] = hCMEC/D3-MDR1 + dox, 7 days after seeding, basolateral to apical, ThinCert 12-well, 0.4 µm, PET
[13] = hCMEC/D3-WT, 12-well, Corning #3460, PET, 4·10^6 pores/cm²
[14] = hCMEC/D3-WT, 7 days after seeding, basolateral to apical, ThinCert (Greiner #665641) 12-well, 0.4 µm, PET, 2·10^6 pores/cm²
[15] = hCMEC/D3-WT, 6-well, Corning #3412, PC, 1·10^8 pores/cm²

effect of Pgp inhibitor on increased Pgp-mediated Rho123 efflux [1]: could be inhibited
effect of Pgp inhibitor on accumulation of Rho123 (Pgp in hCMEC/D3-WT cells): significantly increased
SMILES: COc1cc2c(cc1OC)CN(CCc1ccc(NC(=O)c3cc(OC)c(OC)cc3NC(=O)c3cnc4ccccc4c3)cc1)CC2 [tariquidar]
effect of Pgp inhibitor on accumulation of Rho123 (Pgp in RBE4-WT cells): significantly increased
effect of Pgp inhibitor in Rho123 uptake assay (Pgp in primary rBCECs): significant effect

Papp at 180 min, 1.85 kBq/mL [2, 7]: 6.07 ± 0.159 ×10⁻⁶ cm/s
Papp at 180 min, 1.85 kBq/mL [2, 8]: 11.3 ± 1.18 ×10⁻⁶ cm/s
Papp at 180 min, 1.85 kBq/mL [2, 9]: 15.4 ± 0.215 ×10⁻⁶ cm/s
Papp at 180 min, 1.85 kBq/mL [2, 10]: 21 ± 0.352 ×10⁻⁶ cm/s
Papp at 180 min, 1.85 kBq/mL [2, 11]: 5.96 ± 0.407 ×10⁻⁶ cm/s
Mannitol permeability (RBE4 cell monolayers; [7]): 4.30 ± 0.22 %/h
Mannitol permeability (RBE4 cell monolayers; [8]): 13.62 ± 0.80 %/h
Mannitol permeability (RBE4 cell monolayers; [9]): 11.15 ± 0.24 %/h
Mannitol permeability (RBE4 cell monolayers; [10]): 19.18 ± 0.13 %/h
Mannitol permeability (RBE4 cell monolayers; [11]): 4.20 ± 0.30 %/h
Papp at 180 min, 1.85 kBq/mL [3, 12]: 5.67 ± 0.252 ×10⁻⁶ cm/s
Papp at 180 min, 1.85 kBq/mL [3, 13]: 13.5 ± 0.372 ×10⁻⁶ cm/s
Papp at 180 min, 1.85 kBq/mL ([3]; hCMEC/D3-WT, 12-well, Sarstedt #83.3931.040, PET, 1·10^8 pores/cm²): 19.8 ± 0.489 ×10⁻⁶ cm/s
Papp at 180 min, 1.85 kBq/mL [3, 14]: 5.38 ± 0.432 ×10⁻⁶ cm/s
Papp B→A at 180 min, 1.85 kBq/mL [3, 15]: 10 ×10⁻⁶ cm/s
Mannitol permeability (hCMEC/D3 cell monolayers; [12]): 3.81 ± 0.11 %/h
Mannitol permeability (hCMEC/D3 cell monolayers; [15]): 14.76 ± 1.01 %/h
Mannitol permeability (hCMEC/D3 cell monolayers; [13]): 11.17 ± 0.36 %/h
Mannitol permeability (hCMEC/D3 cell monolayers; [14]): 3.71 ± 0.13 %/h
Papp at 180 min, 1.85 kBq/mL [4]: < 1.2 ×10⁻⁶ cm/s
SMILES: OC[C@@H](O)[C@@H](O)[C@H](O)[C@H](O)CO [Mannitol, D-mannitol]
paracellular mannitol flux (LLC-MDR1 cell monolayers): less than 1 % of mannitol diffusion per hour

SMILES: C[C@H]1c2cccc(O)c2C(=O)C2=C(O)[C@]3(O)C(=O)C(C(N)=O)=C(O)[C@@H](N(C)C)[C@@H]3[C@@H](O)[C@@H]21 [dox, doxycycline]
increase of Pgp expression in comparison to WT cells ([5]; RBE4-MDR1-EGFP in the presence of dox, normalized to β-actin): 9 fold
effect on Pgp expression in WT cells ([5]; RBE4-WT): did not affect
increase of Pgp expression in comparison to WT cells ([6]; hCMEC/D3-MDR1-EGFP in the presence of dox, normalized to β-actin): sevenfold
effect on Pgp expression in WT cells ([6]; hCMEC/D3-WT): did not affect
